From ChEMBL document CHEMBL1148021, “(Arylpiperazinyl)cyclohexylsufonamides: discovery of alpha(1a/1d)-selective adrenergic receptor antagonists for the treatment of Benign Prostatic Hyperplasia/Lower Urinary Tract Symptoms (BPH/LUTS)” (Bioorg Med Chem Lett, 2007)

What was measured:
[1] = target: T1, Alpha-1A adrenergic receptor (Homo sapiens, UniProt P35348); experiment: Binding affinity to human cloned adrenergic alpha-1A receptor
T1 sequence (P35348 whole entry): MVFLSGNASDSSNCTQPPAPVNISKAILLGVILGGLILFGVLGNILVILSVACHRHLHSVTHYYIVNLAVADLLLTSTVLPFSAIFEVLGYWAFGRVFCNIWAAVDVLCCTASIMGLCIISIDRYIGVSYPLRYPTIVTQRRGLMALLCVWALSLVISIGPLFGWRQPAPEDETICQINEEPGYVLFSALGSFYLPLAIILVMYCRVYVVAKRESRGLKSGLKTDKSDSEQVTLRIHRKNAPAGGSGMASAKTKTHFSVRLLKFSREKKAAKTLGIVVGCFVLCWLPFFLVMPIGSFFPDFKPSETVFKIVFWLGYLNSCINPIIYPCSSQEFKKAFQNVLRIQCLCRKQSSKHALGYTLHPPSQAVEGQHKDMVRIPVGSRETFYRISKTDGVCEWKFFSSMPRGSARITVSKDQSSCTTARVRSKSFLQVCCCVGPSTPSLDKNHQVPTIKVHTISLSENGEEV

[2] = target: T2, Alpha-1D adrenergic receptor (Homo sapiens, UniProt P25100); experiment: Binding affinity to human cloned adrenergic Alpha-1D receptor
T2 sequence (P25100 whole entry): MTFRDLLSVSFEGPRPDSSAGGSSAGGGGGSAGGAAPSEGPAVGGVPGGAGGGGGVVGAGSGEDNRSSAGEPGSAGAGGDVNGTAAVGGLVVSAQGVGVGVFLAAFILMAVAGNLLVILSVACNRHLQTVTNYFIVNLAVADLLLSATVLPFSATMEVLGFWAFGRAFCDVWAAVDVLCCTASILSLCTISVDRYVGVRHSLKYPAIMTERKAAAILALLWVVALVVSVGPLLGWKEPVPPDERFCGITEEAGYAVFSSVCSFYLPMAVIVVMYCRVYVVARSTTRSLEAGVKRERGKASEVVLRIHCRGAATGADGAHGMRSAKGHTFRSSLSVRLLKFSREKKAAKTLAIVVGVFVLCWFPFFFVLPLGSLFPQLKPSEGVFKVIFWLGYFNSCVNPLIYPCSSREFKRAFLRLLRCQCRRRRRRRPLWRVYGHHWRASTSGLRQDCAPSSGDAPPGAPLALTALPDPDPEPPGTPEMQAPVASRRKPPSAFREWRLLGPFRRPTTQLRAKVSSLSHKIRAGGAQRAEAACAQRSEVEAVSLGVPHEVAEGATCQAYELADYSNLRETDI

[3] = target: T3, Alpha-1B adrenergic receptor (Homo sapiens, UniProt P35368); experiment: Binding affinity to human cloned adrenergic alpha-1B receptor
T3 sequence (P35368 whole entry): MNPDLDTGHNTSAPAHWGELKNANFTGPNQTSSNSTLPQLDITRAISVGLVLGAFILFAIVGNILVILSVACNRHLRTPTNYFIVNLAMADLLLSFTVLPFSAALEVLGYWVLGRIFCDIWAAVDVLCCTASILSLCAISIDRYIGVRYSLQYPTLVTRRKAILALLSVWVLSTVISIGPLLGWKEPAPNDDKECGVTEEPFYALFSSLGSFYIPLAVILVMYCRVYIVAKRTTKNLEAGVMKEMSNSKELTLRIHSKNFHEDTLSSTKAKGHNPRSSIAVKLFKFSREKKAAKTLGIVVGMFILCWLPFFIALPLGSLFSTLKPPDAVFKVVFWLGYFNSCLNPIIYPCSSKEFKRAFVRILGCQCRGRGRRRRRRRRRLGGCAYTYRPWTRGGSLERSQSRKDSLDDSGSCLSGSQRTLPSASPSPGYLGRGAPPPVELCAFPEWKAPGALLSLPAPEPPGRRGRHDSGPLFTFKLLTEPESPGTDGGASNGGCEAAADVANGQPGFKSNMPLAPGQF

D(2) dopamine receptor = D(2) dopamine receptor (Homo sapiens, UniProt P14416); experiment: Binding affinity to human dopamine D2 receptor
Chain of D(2) dopamine receptor (P14416 whole entry): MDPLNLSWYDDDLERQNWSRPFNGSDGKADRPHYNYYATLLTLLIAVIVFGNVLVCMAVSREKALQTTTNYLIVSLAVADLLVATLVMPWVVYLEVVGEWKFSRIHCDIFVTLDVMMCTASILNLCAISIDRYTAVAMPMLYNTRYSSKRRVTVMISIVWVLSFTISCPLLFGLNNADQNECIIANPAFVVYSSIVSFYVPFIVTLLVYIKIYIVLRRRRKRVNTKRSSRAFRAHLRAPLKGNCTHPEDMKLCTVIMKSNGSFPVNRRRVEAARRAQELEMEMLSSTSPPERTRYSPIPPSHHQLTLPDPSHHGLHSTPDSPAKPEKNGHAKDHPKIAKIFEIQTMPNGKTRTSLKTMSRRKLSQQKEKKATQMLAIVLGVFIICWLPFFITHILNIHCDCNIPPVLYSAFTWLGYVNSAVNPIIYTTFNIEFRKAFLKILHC

SMILES	Ki [1]	Ki [2]	Ki [3]	Ki (D(2) dopamine receptor)
COc1ccc(S(=O)(=O)N[C@H]2CC[C@@H](N3CCN(c4ccccc4OCC4CC4)CC3)CC2)cc1OC	0.189 µM	0.064 µM	0.364 µM	0.123 µM
COc1ccc(C)cc1S(=O)(=O)N[C@H]1CC[C@@H](N2CCN(c3ccccc3OC(C)C)CC2)CC1	0.018 µM	0.007 µM	0.162 µM	0.11 µM
CC(C)Oc1ccccc1N1CCN([C@H]2CC[C@@H](NS(=O)(=O)c3cc(Cl)ccc3F)CC2)CC1	0.045 µM	0.015 µM	1.86 µM	0.356 µM
